Measured values reported in patent US11752120B2, “Use of succinic acid in increasing sensitivity of bacteria to antibiotics” (SUN YAT-SEN UNIVERSITY, priority 2018, dated 2023).

Experiments:
[1] = test system: clinical Escherichia coli biofilm; assay: In vitro bactericidal assay of biofilm; assay type: cell-based; conditions: catheter biofilm, 6 hours; succinic acid 580 mg/kg; ampicillin 2000 mg/kg for YT16, 500 mg/kg for YT28
Method: […] of clinical Escherichia coli (YT3, YT11, YT12, YT16, YT17, YT21, YT22, YT23, YT28, YT33) were picked, monocloned into LB medium, and cultured overnight, then were transferred into 2 mL fresh LB medium at 1:200, and added with a 6 mm PE-50 biological catheter that was sterilized by UV, and cultured in a 37° C. incubator for culture for 24 hours. The bacterial solution was replaced with 1 mL of LB medium daily, and the catheter was continuously cultured for 3 days. The prepared biofilm was washed 5 times with 1 mL of sterile normal saline, and then placed in a 1.5 mL EP tube.
The assay was divided into 4 groups: normal saline control group, succinic acid group, ampicillin group, ampicillin+succinic acid group, and the catheters were treated in a shaker at 37° C. and 200 rpm. A dosage of succinic acid was 580 mg/kg, and a dosage of ampicillin was 2000 mg/kg for YT16, and 500 mg/kg for YT28. After 6 hours, ultrasonic cleaning was conducted for 15 minutes, the biofilm on the catheter was eluted and thoroughly mixed, and after gradient dilution, spot plate counting was performed. The formula for calculating the bacterial survival rate is: number of viable bacteria in each group/number of viable bacteria in the control group×100%.

[2] = test system: clinical Escherichia coli YT1-30; assay: Minimum inhibitory concentration (MIC), NCCLS method, 30 clinical strains; assay type: cell-based; parameters: Minimum inhibitory concentration (MIC): unit not given here
Excerpt: (§1) Escherichia coli (E. coli) are one of the most common bacteria in the clinic. 30 strains of E. coli obtained from the clinic were named YT1-30. The minimum inhibitory concentrations (MIC) of 8 antibiotics against these 30 clinically obtained E. coli was detected according to the NCCLS method, and E. coli K12 was used as a control.

[3] = test system: E. coli K12; assay: Minimum inhibitory concentration (MIC), NCCLS method, control strain; assay type: cell-based, Escherichia coli; conditions: no unit in table, MIC in μg/mL
Excerpt: as §1

[4] = test system: clinical Escherichia coli YT16 and YT28; assay: Viable bacteria count / survival rate after antibiotic with or without succinic acid in M9 medium; assay type: cell-based
Method: A single colony of clinical bacteria was picked from a solid LB plate and was inoculated in 5 mL LB liquid medium for culture at 37° C. and 200 rpm for 16 hours, and then was inoculated in 100 mL LB liquid medium at a ratio of 1:100 (v/v) and was cultured at 37° C. until OD600 value was 1.0. 20 mL of bacterial solution was collected and centrifuged at 8000 rpm for 5 minutes, the supernatant was cleared and bacterial cells were washed with an equal volume of 0.85% normal saline, and finally the bacterial cells were suspended with 1×M9 basic medium (containing 10 mM acetate), the OD value of the bacterial solution was adjusted to 0.5, and then 5 mL of the bacterial solution was aliquoted in a test tube for the following experimental studies.
The survival rates of the clinical bacteria in medium with adding succinic acid and without adding succinic acid at the same antibiotic concentration were compared.
The formula is the number of viable bacteria when different concentrations of succinic acid were added/the number of viable bacteria without adding succinic acid×100%.
In order to study whether clinical Escherichia coli has effect on penicillin antibiotics after adding succinic acid, two clinical Escherichia coli samples of YT16 and YT28 were prepared according to step 2 in Embodiment 1, 20 mM succinic acid and 3 kinds of penicillin were added respectively, […], the number of viable bacteria was counted, and the survival rate was calculated. […]

## CC1(C)S[C@@H]2[C@H](NC(=O)[C@H](N)c3ccccc3)C(=O)N2[C@H]1C(=O)O [Ampicillin]
[1]
  clearance of clinical Escherichia coli on the biofilms, used alone: cannot clear
[2]; strain YT1
  Minimum inhibitory concentration (MIC): 25000
[2]; strain YT2
  Minimum inhibitory concentration (MIC): 6250
[2]; strain YT3
  Minimum inhibitory concentration (MIC): 390.625
[2]; strain YT4
  Minimum inhibitory concentration (MIC): 6250
[2]; strain YT5
  Minimum inhibitory concentration (MIC): 25000
[2]; strain YT6
  Minimum inhibitory concentration (MIC): 1562.5
[2]; strain YT7
  Minimum inhibitory concentration (MIC): 1562.5
[2]; strain YT8
  Minimum inhibitory concentration (MIC): 1562.5
[2]; strain YT9
  Minimum inhibitory concentration (MIC): 1562.5
[2]; strain YT10
  Minimum inhibitory concentration (MIC): 6250
[2]; strain YT11
  Minimum inhibitory concentration (MIC): 1562.5
[2]; strain YT12
  Minimum inhibitory concentration (MIC): 6250
[2]; strain YT13
  Minimum inhibitory concentration (MIC): 6250
[2]; strain YT14
  Minimum inhibitory concentration (MIC): 6250
[2]; strain YT15
  Minimum inhibitory concentration (MIC): 6250
[2]; strain YT16
  Minimum inhibitory concentration (MIC): 6250
[2]; strain YT17
  Minimum inhibitory concentration (MIC): 6250
[2]; strain YT18
  Minimum inhibitory concentration (MIC): 6250
[2]; strain YT19
  Minimum inhibitory concentration (MIC): 1562.5
[2]; strain YT20
  Minimum inhibitory concentration (MIC): 1562.5
[2]; strain YT21
  Minimum inhibitory concentration (MIC): 1562.5
[2]; strain YT22
  Minimum inhibitory concentration (MIC): 6250
[2]; strain YT23
  Minimum inhibitory concentration (MIC): 1562.5
[2]; strain YT24
  Minimum inhibitory concentration (MIC): 6250
[2]; strain YT25
  Minimum inhibitory concentration (MIC): 6250
[2]; strain YT26
  Minimum inhibitory concentration (MIC): 6250
[2]; strain YT27
  Minimum inhibitory concentration (MIC): 6250
[2]; strain YT28
  Minimum inhibitory concentration (MIC): 1562.5
[2]; strain YT29
  Minimum inhibitory concentration (MIC): 6250
[2]; strain YT30
  Minimum inhibitory concentration (MIC): 25000
[3]
  Minimum inhibitory concentration (MIC): 6.1
[4]; YT16, 2.5 mg/mL ampicillin without adding succinic acid, 4 hours
  survival rate: 61.04%
[4]; YT16, 5 mg/mL ampicillin without adding succinic acid, 4 hours
  survival rate: 34.53%
[4]; YT16, 10 mg/mL ampicillin without adding succinic acid, 4 hours (FIG. 1)
  survival rate: 25.99%
[4]; YT16, 10 mg/mL ampicillin without adding succinic acid, 4 hours (FIG. 3)
  survival rate: 73.8%
[4]; YT16, 20 mg/mL ampicillin without adding succinic acid, 4 hours
  survival rate: 12.47%
[4]; YT16, only 10 mg/mL ampicillin added, 1 hour (FIG. 2)
  survival rate: 93.89%
[4]; YT16, only 10 mg/mL ampicillin added, 4 hours (FIG. 2)
  survival rate: 47.34%
[4]; YT16, only 10 mg/mL ampicillin added, 7 hours (FIG. 2)
  survival rate: 18.45%
[4]; YT28, 2.5 mg/mL ampicillin without adding succinic acid, 4 hours
  survival rate: 68.38%
[4]; YT28, 5 mg/mL ampicillin without adding succinic acid, 4 hours
  survival rate: 56.25%
[4]; YT28, 10 mg/mL ampicillin without adding succinic acid, 4 hours (FIG. 1)
  survival rate: 35.87%
[4]; YT28, 10 mg/mL ampicillin without adding succinic acid, 4 hours (FIG. 3)
  survival rate: 86.21%
[4]; YT28, 20 mg/mL ampicillin without adding succinic acid, 4 hours
  survival rate: 27.09%
[4]; YT28, only 10 mg/mL ampicillin added, 1 hour (FIG. 2)
  survival rate: 96.79%
[4]; YT28, only 10 mg/mL ampicillin added, 4 hours (FIG. 2)
  survival rate: 26.79%
[4]; YT28, only 10 mg/mL ampicillin added, 7 hours (FIG. 2)
  survival rate: 14.18%

## CC[C@H]1OC(=O)[C@H](C)[C@@H](O[C@H]2C[C@@](C)(OC)[C@@H](O)[C@H](C)O2)[C@H](C)[C@@H](O[C@@H]2O[C@H](C)C[C@H](N(C)C)[C@H]2O)[C@](C)(O)C[C@@H](C)/C(=N\OCOCCOC)[C@H](C)[C@@H](O)[C@]1(C)O [Roxithromycin]
[2]; strain YT1
  Minimum inhibitory concentration (MIC): 39.0625
[2]; strain YT2
  Minimum inhibitory concentration (MIC): 625
[2]; strain YT3
  Minimum inhibitory concentration (MIC): 625
[2]; strain YT4
  Minimum inhibitory concentration (MIC): 156.25
[2]; strain YT5
  Minimum inhibitory concentration (MIC): 625
[2]; strain YT6
  Minimum inhibitory concentration (MIC): 625
[2]; strain YT7
  Minimum inhibitory concentration (MIC): 625
[2]; strain YT8
  Minimum inhibitory concentration (MIC): 625
[2]; strain YT9
  Minimum inhibitory concentration (MIC): 625
[2]; strain YT10
  Minimum inhibitory concentration (MIC): 625
[2]; strain YT11
  Minimum inhibitory concentration (MIC): 625
[2]; strain YT12
  Minimum inhibitory concentration (MIC): 625
[2]; strain YT13
  Minimum inhibitory concentration (MIC): 625
[2]; strain YT14
  Minimum inhibitory concentration (MIC): 2500
[2]; strain YT15
  Minimum inhibitory concentration (MIC): 2500
[2]; strain YT16
  Minimum inhibitory concentration (MIC): 625
[2]; strain YT17
  Minimum inhibitory concentration (MIC): 625
[2]; strain YT18
  Minimum inhibitory concentration (MIC): 625
[2]; strain YT19
  Minimum inhibitory concentration (MIC): 625
[2]; strain YT20
  Minimum inhibitory concentration (MIC): 625
[2]; strain YT21
  Minimum inhibitory concentration (MIC): 625
[2]; strain YT22
  Minimum inhibitory concentration (MIC): 625
[2]; strain YT23
  Minimum inhibitory concentration (MIC): 625
[2]; strain YT24
  Minimum inhibitory concentration (MIC): 625
[2]; strain YT25
  Minimum inhibitory concentration (MIC): 625
[2]; strain YT26
  Minimum inhibitory concentration (MIC): 625
[2]; strain YT27
  Minimum inhibitory concentration (MIC): 625
[2]; strain YT28
  Minimum inhibitory concentration (MIC): 2500
[2]; strain YT29
  Minimum inhibitory concentration (MIC): 625
[2]; strain YT30
  Minimum inhibitory concentration (MIC): 156.25
[3]
  Minimum inhibitory concentration (MIC): 9.765
